Usually Kd stands for the constant that tells how readily two partners part at equilibrium. Lower therefore signals higher affinity.

Assay [1] has as its target T1, SaPriA (PriA helicase) (Staphylococcus aureus, UniProt Q2G266).
T1 sequence (Q2G266 1-802): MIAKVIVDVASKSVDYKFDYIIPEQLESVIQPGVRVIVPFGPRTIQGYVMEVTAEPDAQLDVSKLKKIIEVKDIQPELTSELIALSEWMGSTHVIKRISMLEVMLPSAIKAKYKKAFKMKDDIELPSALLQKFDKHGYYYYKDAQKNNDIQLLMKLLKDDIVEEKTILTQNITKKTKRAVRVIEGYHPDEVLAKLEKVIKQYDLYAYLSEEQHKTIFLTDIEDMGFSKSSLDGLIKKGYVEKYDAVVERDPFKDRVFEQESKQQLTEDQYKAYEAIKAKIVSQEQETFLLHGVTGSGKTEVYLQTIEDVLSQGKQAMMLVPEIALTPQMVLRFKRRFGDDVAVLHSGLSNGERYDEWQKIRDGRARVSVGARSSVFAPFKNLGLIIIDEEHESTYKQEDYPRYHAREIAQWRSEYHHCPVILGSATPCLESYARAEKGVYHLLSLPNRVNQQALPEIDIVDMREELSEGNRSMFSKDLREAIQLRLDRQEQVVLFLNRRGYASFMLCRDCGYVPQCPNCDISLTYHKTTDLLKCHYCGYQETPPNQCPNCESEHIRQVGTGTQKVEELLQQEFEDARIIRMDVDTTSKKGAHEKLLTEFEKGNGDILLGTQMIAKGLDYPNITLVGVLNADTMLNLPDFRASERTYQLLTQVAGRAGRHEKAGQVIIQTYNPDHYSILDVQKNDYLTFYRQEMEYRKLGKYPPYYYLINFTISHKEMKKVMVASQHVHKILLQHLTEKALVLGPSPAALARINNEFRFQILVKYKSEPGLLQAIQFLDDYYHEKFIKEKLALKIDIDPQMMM
Kind of assay: intrinsic fluorescence quenching titration of purified SaPriA. The assay is classed as binding.

Assay [2] has as its target T1, SaPriA (PriA helicase). Kind of assay: vanadate-sensitive colorimetric ATPase assay, single concentration of […]. In kind it is biochemical. The settings on record: read-out: %.

As to `O=c1c(O)c(-c2ccc(O)cc2)oc2cc(O)cc(O)c12` [kaempferol], at SaPriA (PriA helicase) [1], the Kd worked out at 9.1 ± 3.2 µM.

As to `O=c1c(O)c(-c2cc(O)c(O)c(O)c2)oc2cc(O)cc(O)c12` [myricetin], the activity at 35 µM at SaPriA (PriA helicase) [2] was determined as 69%.

The values are drawn from publication PMC7088215 (The Protein Journal, 2015).
